Assay results: patent US9115127B2 (AMGEN INC., priority 2010, dated 2015)
Counter-ions that a name gives are not always drawn.

molecular target: T1, wild-type human ALK (cytoplasmic domain, amino acids 1058-1620, N-terminal GST fusion) (Homo sapiens, UniProt Q9UM73); assay: ALK Inhibition in Enzyme Assay (Lance TR-FRET kinase assay); format: biochemical
T1 construct: The cytoplasmic domain (amino acids 1058-1620) of wild-type human ALK; GST (N); made in house; host or cells: SF9 insect cells
Experimental: ALK Inhibition in Enzyme Assay
Kinase activity of the purified protein was assessed using a Lance® TR-FRET assay. […] The reaction was allowed to proceed for 90 minutes at room temperature and was then terminated with 20 mM EDTA in 50 mM Tris (pH 7.5), 100 mM NaCl, 0.05% BSA, and 0.1% Tween-20. Phosphorylation of the peptide substrate was detected using the Lance® detection reagents streptavidin-allophycocyanin (SA-APC) and Eu-W1024 anti-phosphotyrosine antibody (PT66) from Perkin Elmer Life Sciences (Waltham, Mass.). The plates were read on a RUBY star plate reader (BMG LABTECH, Cary, N.C.) with an excitation wavelength of 320 nm.

T1 sequence (Q9UM73 1058-1620): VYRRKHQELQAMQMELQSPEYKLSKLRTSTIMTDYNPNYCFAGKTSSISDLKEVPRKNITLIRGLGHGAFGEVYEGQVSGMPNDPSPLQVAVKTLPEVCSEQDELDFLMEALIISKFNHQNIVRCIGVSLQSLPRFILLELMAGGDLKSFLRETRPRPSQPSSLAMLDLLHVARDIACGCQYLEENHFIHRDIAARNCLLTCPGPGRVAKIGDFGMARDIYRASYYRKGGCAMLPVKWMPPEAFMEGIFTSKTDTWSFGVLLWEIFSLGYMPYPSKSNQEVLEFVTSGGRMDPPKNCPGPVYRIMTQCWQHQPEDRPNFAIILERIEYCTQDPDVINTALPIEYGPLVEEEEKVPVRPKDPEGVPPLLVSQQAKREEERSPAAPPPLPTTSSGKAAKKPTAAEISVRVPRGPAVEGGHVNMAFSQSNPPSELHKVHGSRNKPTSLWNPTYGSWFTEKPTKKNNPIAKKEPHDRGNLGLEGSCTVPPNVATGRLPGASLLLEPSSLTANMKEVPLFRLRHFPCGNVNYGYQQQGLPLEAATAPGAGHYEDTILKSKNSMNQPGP

IC50 [nM]	Compound
< 50	CC(C)(C)NC(=O)[C@H]1CC[C@@H](n2c(NC(=O)c3ccccc3)nc3ccc(CN4CCCCC4)cc32)CC1 [Example 29, N-(1-(cis-4-(tert-Butylcarbamoyl)cyclohexyl)-6-(piperidin-1-ylmethyl)-1H-benzo[d]imidazol-2-yl)benzamide]
100 to 1000	C[C@@H]1CN(C(=O)OC(C)(C)C)CCN1C(=O)[C@H]1CC[C@@H](n2/c(=N/C(=O)c3ccc(F)cc3)[nH]c3cnc(OCCN4CCCCC4)cc32)CC1 [Example 56, (R)-tert-Butyl 4-(cis-4-((E)-2-(4-fluorobenzoylimino)-6-(2-(piperidin-1-yl)ethoxy)-2,3-dihydro-1H-imidazo[4,5-c]pyridin-1-yl)cyclohexanecarbonyl)-3-methylpiperazine-1-carboxylate]
100 to 1000	CC(C)(O)C1CCN(Cc2ccc3[nH]/c(=N\C(=O)c4cccc(F)c4)n([C@H]4CC[C@H](C(N)=O)CC4)c3c2)CC1 [Example 234, (E)-N-(1-(trans-4-Carbamoylcyclohexyl)-6-((4-(2-hydroxypropan-2-yl)piperidin-1-yl)methyl)-1H-benzo[d]imidazol-2(3H)-ylidene)-3-fluorobenzamide]
1000 to 5000	NC(=O)[C@]1(c2cccc(Br)c2)C[C@H](n2/c(=N/C(=O)c3ccc(F)cc3)[nH]c3cnc(OCCN4CCCCC4)cc32)C1 [Example 252, (E)-N-(1-(cis-3-(3-Bromophenyl)-3-carbamoylcyclobutyl)-6-(2-(piperidin-1-yl)ethoxy)-1H-imidazo[4,5-c]pyridin-2(3H)-ylidene)-4-fluorobenzamide]
1000 to 5000	NC(=O)[C@H]1CC[C@H](n2/c(=N/C(=O)c3cc(F)cc(F)c3)[nH]c3cnc(OCCN4CCCCC4)cc32)CC1 [Example 247, (E)-N-(1-(trans-4-Carbamoylcyclohexyl)-6-(2-(piperidin-1-yl)ethoxy)-1H-imidazo[4,5-c]pyridin-2(3H)-ylidene)-3,5-difluorobenzamide]
< 50	O=C(/N=c1\[nH]c2ccc(CN3CCOCC3)cc2n1[C@H]1CC[C@@H](C(=O)NCCO)CC1)c1ccc(F)cc1 [Example 201, (E)-4-Fluoro-N-(1-(cis-4-(2-hydroxyethylcarbamoyl)cyclohexyl)-6-(morpholinomethyl)-1H-benzo[d]imidazol-2(3H)-ylidene)benzamide]
< 50	CC(C)NC(=O)[C@H]1CC[C@@H](n2/c(=N/C(=O)c3ccc(F)cc3)[nH]c3cnc(N4CCOCC4)cc32)CC1 [Example 222, (E)-4-Fluoro-N-(1-(cis-4-(isopropylcarbamoyl)cyclohexyl)-6-morpholino-1H-imidazo[4,5-c]pyridin-2(3H)-ylidene)benzamide]
< 50	CC(C)NC(=O)[C@H]1CC[C@@H](n2/c(=N/C(=O)c3ccc(F)cc3)[nH]c3cnc(OC4CCN(CC(=O)O)CC4)cc32)CC1 [Example 168, 2-(4-((E)-2-(4-Fluorobenzoylimino)-1-(cis-4-(isopropylcarbamoyl)cyclohexyl)-2,3-dihydro-1H-imidazo[4,5-c]pyridin-6-yloxy)piperidin-1-yl)acetic acid hydrochloride]
< 50	CC(C)NC(=O)[C@H]1CC[C@@H](n2/c(=N/C(=O)c3ccc(F)cc3)[nH]c3ccc(N4CCOCC4)cc32)CC1 [Example 218, (E)-4-Fluoro-N-(1-(cis-4-(isopropylcarbamoyl)cyclohexyl)-6-morpholino-1H-benzo[d]imidazol-2(3H)-ylidene)benzamide]
< 50	COc1cc2c(cn1)[nH]/c(=N\C(=O)c1ccc(F)cc1)n2[C@H]1CC[C@@H](C(=O)NC(C)C)CC1 [Example 157, (E)-4-Fluoro-N-(1-(cis-4-(isopropylcarbamoyl)cyclohexyl)-6-methoxy-1H-imidazo[4,5-c]pyridin-2(3H)-ylidene)benzamide]
< 50	CC(C)NC(=O)[C@H]1CC[C@@H](n2/c(=N/C(=O)c3ccc(F)cc3)[nH]c3cnc(N4CCN(C)CC4)cc32)CC1 [Example 225, (E)-4-Fluoro-N-(1-(cis-4-(isopropylcarbamoyl)cyclohexyl)-6-(4-methylpiperazin-1-yl)-1H-imidazo[4,5-c]pyridin-2(3H)-ylidene)benzamide]
< 50	CC(C)NC(=O)[C@H]1CC[C@@H](n2/c(=N/C(=O)c3ccc(F)cc3)[nH]c3ccc(N4CCS(=O)(=O)CC4)cc32)CC1 [Example 239, (E)-4-Fluoro-N-(1-(cis-4-(isopropylcarbamoyl)cyclohexyl)-6-(thiomorpholine 1,1-dioxide)-1H-benzo[d]imidazol-2(3H)-ylidene)benzamide]
1000 to 5000	CC(C)NC(=O)[C@H]1CC[C@@H](n2/c(=N/C(=O)c3cccc(S(C)(=O)=O)c3)[nH]c3cnc(OCCN4CCCCC4)cc32)CC1 [Example 93, (E)-N-(1-(cis-4-(Isopropylcarbamoyl)cyclohexyl)-6-(2-(piperidin-1-yl)ethoxy)-1H-imidazo[4,5-c]pyridin-2(3H)-ylidene)-3-(methylsulfonyl)benzamide]
100 to 1000	CC(C)NC(=O)[C@H]1CC[C@@H](n2/c(=N/C(=O)c3ccc4cc[nH]c4c3)[nH]c3cnc(OCCN4CCCCC4)cc32)CC1 [Example 104, (E)-N-(1-(cis-4-(Isopropylcarbamoyl)cyclohexyl)-6-(2-(piperidin-1-yl)ethoxy)-1H-imidazo[4,5-c]pyridin-2(3H)-ylidene)-1H-indole-6-carboxamide]
50 to 100	COc1ccc(C(=O)/N=c2\[nH]c3cnc(OCCN4CCCCC4)cc3n2[C@H]2CC[C@@H](C(=O)NC(C)C)CC2)cc1 [Example 100, (E)-N-(1-(cis-4-(Isopropylcarbamoyl)cyclohexyl)-6-(2-(piperidin-1-yl)ethoxy)-1H-imidazo[4,5-c]pyridin-2(3H)-ylidene)-4-methoxybenzamide]
100 to 1000	COC(=O)[C@H]1CC[C@@H](n2/c(=N/C(=O)c3cccc(C(F)(F)F)c3)[nH]c3ccc(CO)cc32)CC1 [Example 12, cis-Methyl 4-((E)-6-(hydroxymethyl)-2-(3-(trifluoromethyl)benzoylimino)-2,3-dihydro-1H-benzo[d]imidazol-1-yl)cyclohexanecarboxyl]
< 50	CC(C)NC(=O)[C@H]1CC[C@@H](n2/c(=N/C(=O)c3ccc(F)cc3)[nH]c3ccc(OCCN4CCOCC4)cc32)CC1 [Example 161, (E)-4-Fluoro-N-(1-(cis-4-(isopropylcarbamoyl)cyclohexyl)-6-(2-morpholinoethoxy)-1H-benzo[d]imidazol-2(3H)-ylidene)benzamide]
100 to 1000	COc1cc(C(=O)/N=c2\[nH]c3cnc(OCCN4CCCCC4)cc3n2[C@H]2CC[C@@H](C(=O)NC(C)C)CC2)ccc1F [Example 113, (E)-4-Fluoro-N-(1-(cis-4-(isopropylcarbamoyl)cyclohexyl)-6-(2-(piperidin-1-yl)ethoxy)-1H-imidazo[4,5-c]pyridin-2(3H)-ylidene)-3-methoxybenzamide]
< 50	CC(C)NC(=O)[C@H]1CC[C@@H](n2/c(=N/C(=O)c3cccc(Cl)c3)[nH]c3cnc(OCCN4CCCCC4)cc32)CC1 [Example 119, (E)-3-Chloro-N-(1-(cis-4-(isopropylcarbamoyl)cyclohexyl)-6-(2-(piperidin-1-yl)ethoxy)-1H-imidazo[4,5-c]pyridin-2(3H)-ylidene)benzamide]
< 50	CC(C)NC(=O)[C@H]1CC[C@@H](n2/c(=N/C(=O)c3ccncc3)[nH]c3cnc(OCCN4CCCCC4)cc32)CC1 [Example 90, (E)-N-(1-(cis-4-(Isopropylcarbamoyl)cyclohexyl)-6-(2-(piperidin-1-yl)ethoxy)-1H-imidazo[4,5-c]pyridin-2(3H)-ylidene)isonicotinamide]
< 50	COCCOCc1ccc2[nH]/c(=N\C(=O)c3ccc(F)cc3)n([C@H]3CC[C@@H](C(=O)NC(C)C)CC3)c2c1 [Example 198, (E)-4-Fluoro-N-(1-(cis-4-(isopropylcarbamoyl)cyclohexyl)-6-((2-methoxyethoxy)methyl)-1H-benzo[d]imidazol-2(3H)-ylidene)benzamide]
50 to 100	CC(C)NC(=O)[C@H]1CC[C@@H](n2/c(=N/C(=O)c3ccc4ccsc4c3)[nH]c3cnc(OCCN4CCCCC4)cc32)CC1 [Example 87, (E)-N-(1-(cis-4-(Isopropylcarbamoyl)cyclohexyl)-6-(2-(piperidin-1-yl)ethoxy)-1H-imidazo[4,5-c]pyridin-2(3H)-ylidene)benzo[b]thiophene-6-carboxamide]
< 50	CC(C)(O)C1CCN(Cc2ccc3[nH]/c(=N\C(=O)c4ccc(F)cc4)n([C@H]4CC[C@@H](C(N)=O)CC4)c3c2)CC1 [Example 212, (E)-N-(1-(cis-4-Carbamoylcyclohexyl)-6-((4-(2-hydroxypropan-2-yl)piperidin-1-yl)methyl)-1H-benzo[d]imidazol-2(3H)-ylidene)-4-fluorobenzamide]
100 to 1000	CC(C)NC(=O)[C@H]1CC[C@@H](n2/c(=N/C(=O)c3ccc(C(N)=O)cc3)[nH]c3cnc(OCCN4CCCCC4)cc32)CC1 [Example 122, (E)-N-1-(1-(cis-4-(Isopropylcarbamoyl)cyclohexyl)-6-(2-(piperidin-1-yl)ethoxy)-1H-imidazo[4,5-c]pyridin-2(3H)-ylidene)terephthalamide]
50 to 100	CC(C)NC(=O)[C@H]1CC[C@@H](n2/c(=N/C(=O)c3ccc(F)cc3F)[nH]c3cnc(OCCN4CCCCC4)cc32)CC1 [Example 94, (E)-2,4-Difluoro-N-(1-(cis-4-(isopropylcarbamoyl)cyclohexyl)-6-(2-(piperidin-1-yl)ethoxy)-1H-imidazo[4,5-c]pyridin-2(3H)-ylidene)benzamide]
100 to 1000	COCCCNS(=O)(=O)c1cc(C(=O)Nc2nc3ccc(CO)cc3n2[C@H]2CC[C@@H](C(=O)OC)CC2)ccc1F [Example 28, cis-Methyl 4-(2-(4-fluoro-3-(N-(3-methoxypropyl)sulfamoyl)benzamido)-6-(hydroxymethyl)-1H-benzo[d]imidazol-1-yl)cyclohexanecarboxylate]
